# Data reported in US20110112158A1, “BENZISOXAZOLE ANALOGS AS GLYCOGEN SYNTHASE ACTIVATORS” (priority 2009, published 2011).
# Test system: glycogen synthase
# Assay: Glycogen Synthase (GS) Assay
# Assay type: biochemical
# Details: for EC50: compound concentration needed to give 50% maximum activation; for GS SC200: compound concentration needed to stimulate 200% of the enzyme activity
# Description: Twelve μl per well of substrate solution containing glycogen (4.32 mg/ml), 2.67 mM UDP-glucose, 21.6 mM phospho(enol)pyruvate and 2.7 mM NADH in 30 mM glycylglycine, pH 7.3 buffer was added into a polystyrene 384-well assay plate (BD Biosciences).
# Compound solutions (8 μl/well) at various concentrations (0-300 μM) were added to the assay plate (columns 5-24). Compound solution contains 30 mM glycylglycine, pH 7.3, 40 mM KCl, 20 mM MgCl2, 9.2% DMSO, with (columns 15-24) or without (columns 5-14) 20 mM glucose 6-phosphate.
# Enzyme solution (12 μl/well) containing glycogen synthase (16.88 μg/ml), pyruvate kinase (0.27 mg/ml), lactate dehydrogenase (0.27 mg/ml) in 50 mM Tris-HCl, pH 8.0, 27 mM DTT and bovine serum albumin (BSA, 0.2 mg/ml) was added to the assay plate (columns 3-24). As a blank control, enzyme solution without glycogen synthase was added into the top half wells of columns 1-2. To the bottom half wells of columns 1-2 were added a known activator, glucose 6-phosphate (at final concentration 5 mM) in addition to the enzyme solution. The reaction mixture was incubated at room temperature. The assay plate was then read for absorbance at 340 nm on an Envision reader every 3 minutes up to a total of 15 minutes.
# The enzyme activity (with or without compound) was calculated by the reaction rate and represented by the optical density change (μOD) per minute. Percent stimulation of glycogen synthase activity by a compound at various concentrations was calculated by the following formula: […]
# wherein Rs is the reaction rate of the enzyme in the presence of compound and Rt is the reaction rate of the enzyme in the absence of compound.
# SC200 is defined as the compound concentration that is needed to stimulate 200% of the enzyme activity. EC50 is defined as the compound concentration that is needed to give 50% maximum activation.
Compound,EC50 [µM],GS SC200 [µM]
COc1cc(F)c(F)cc1-c1ccc(OCc2ccc3onc(N(C)CC(=O)O)c3c2)cc1 [Example 3],0.302,0.024
"COc1cc(F)c(F)cc1-c1ccc(OCc2ccc3onc(OCC(=O)O)c3c2)cc1 [Example 5, [5-(4′,5′-Difluoro-2′-methoxy-biphenyl-4-yloxymethyl)-benzo[d]isoxazol-3-yloxy]-acetic acid]",1.35,0.492
"COc1cc(F)c(F)cc1-c1ccc(OCc2ccc3onc(OC(C)C(=O)O)c3c2)cc1 (stereo not shown) [Example 7, 2-[5-(4′,5′-Difluoro-2′-methoxy-biphenyl-4-yloxymethyl)-benzo[d]isoxazol-3-yloxy]-propionic acid]",0.662,0.218
"COc1cc(F)c(F)cc1-c1ccc(OCc2ccc3onc(OC(C(=O)O)c4ccccc4)c3c2)cc1 (stereo not shown) [Example 8, [5-(4′,5′-Difluoro-2′-methoxy-biphenyl-4-yloxymethyl)-benzo[d]isoxazol-3-yloxy]-phenyl-acetic acid]",1.76,0.723
"COc1cc(F)c(F)cc1-c1ccc(OCc2ccc3onc(OCCC(=O)O)c3c2)cc1 [Example 9, 3-[5-(4′,5′-Difluoro-2′-methoxy-biphenyl-4-yloxymethyl)-benzo[d]isoxazol-3-yloxy]-propionic acid]",1.7,0.61
"Oc1noc2c(COc3ccc(-c4cc(F)c(F)cc4F)cc3)cccc12 [Example 10, 7-(2′,4′,5′-Trifluoro-biphenyl-4-yl-oxymethyl)-benzo[d]isoxazol-3-ol]",0.836,0.148
"Oc1noc2c(COc3ccc(-c4cc(F)c(F)cc4Cl)cc3)cccc12 [Example 12, 7-(2′-Chloro-4′,5′-difluoro-biphenyl-4-yloxymethyl)-benzo[d]isoxazol-3-ol]",0.702,0.406
"Cc1cc(F)c(F)cc1-c1ccc(OCc2cccc3c(O)noc23)cc1 [Example 13, 7-(4′,5′-Difluoro-2′-methyl-biphenyl-4-yloxymethyl)-benzo[d]isoxazol-3-ol]",0.792,0.523
"COCCCN(CC(=O)O)c1noc2ccc(COc3ccc(-c4cc(F)c(F)cc4OC)cc3)cc12 [Example 15, [[5-(4′,5′-Difluoro-2′-methoxy-biphenyl-4-yloxymethyl)-benzo[d]isoxazol-3-yl]-(3-methoxy-propyl)-amino]-acetic acid]",0.514,0.169
"CCN(CC(=O)O)c1noc2ccc(COc3ccc(-c4cc(F)c(F)cc4OC)cc3)cc12 [Example 16, {[5-(4′,5′-Difluoro-2′-methoxy-biphenyl-4-yloxymethyl)-benzo[d]isoxazol-3-yl]-ethyl-amino}-acetic acid]",0.631,2.18
COc1cc(F)c(F)cc1-c1ccc(OCc2ccc3onc(N(CC(=O)O)CC4CC4)c3c2)cc1 [Example 17],1.16,0.438
"COc1cc(F)c(F)cc1-c1ccc(OCc2ccc3onc(N(CC(=O)O)CC4CCOCC4)c3c2)cc1 [Example 18, [[5-(4′,5′-Difluoro-2′-methoxy-biphenyl-4-yloxymethyl)-benzo[d]isoxazol-3-yl]-(tetrahydro-pyran-4-ylmethyl)-amino]-acetic acid]",0.713,0.249
"COc1cc(F)c(F)cc1-c1ccc(OCc2cccc3c(N(C)CC(=O)O)noc23)cc1 [Example 19, {[7-(4′,5′-Difluoro-2′-methoxy-biphenyl-4-yloxymethyl)-benzo[d]isoxazol-3-yl]-methyl-amino}-acetic acid]",4.22,1.57

# Further compounds by falling EC50, results first:
EC50 [µM],Compound,GS SC200 [µM]
1.97,CNc1noc2ccc(COc3ccc(-c4cc(F)c(F)cc4OC)cc3)cc12 [Example 2],0.514
1.49,"COc1cc(F)c(F)cc1-c1ccc(OCc2ccc3onc(N)c3c2)cc1 [Example 1, 5-(4′,5′-Difluoro-2′-methoxy-biphenyl-4-yloxymethyl)-benzo[d]isoxazol-3-ylamine]",0.688
0.777,"COc1cc(F)c(F)cc1-c1ccc(OCc2ccc3onc(OC(C)(C)C(=O)O)c3c2)cc1 [Example 6, 2-[5-(4′,5′-Difluoro-2′-methoxy-biphenyl-4-yloxymethyl)-benzo[d]isoxazol-3-yloxy]-2-methyl-propionic acid]",0.348
0.422,"Oc1noc2ccc(COc3ccc(-c4cc(F)c(F)cc4F)cc3)cc12 [Example 20, 5-(2′,4′,5′-Trifluoro-biphenyl-4-yloxymethyl)-benzo[d]isoxazol-3-ol]",0.247
0.365,"COCCN(CC(=O)O)c1noc2ccc(COc3ccc(-c4cc(F)c(F)cc4OC)cc3)cc12 [Example 14, [[5-(4′,5′-Difluoro-2′-methoxy-biphenyl-4-yloxymethyl)-benzo[d]isoxazol-3-yl]-(2-methoxy-ethyl)-amino]-acetic acid]",0.098
0.172,"COc1cc(F)c(F)cc1-c1ccc(OCc2ccc3onc(O)c3c2)cc1 [Example 4, 5-(4′,5′-Difluoro-2′-methoxy-biphenyl-4-yloxymethyl)-benzo[d]isoxazol-3-ol]",0.032
0.158,"COc1cc(F)c(F)cc1-c1ccc(OCc2cccc3c(O)noc23)cc1 [Example 11, 7-(4′,5′-Difluoro-2′-methoxy-biphenyl-4-yloxymethyl)-benzo[d] isoxazol-3-ol]",0.014
